Assays:
[1] = molecular target: T1, recombinant UDP-glucuronosyltransferase 2B7 (Homo sapiens, UniProt P16662); test: In vitro glucuronidation of lysophosphatidic acids by recombinant UGT2B7 expressed in HK293 cells; assay type: in vitro ADME; settings: for Glucuronidation by UGT2B7 (in words): recombinant UGT2B7, FIG. 9A
T1 construct: made in house
T1 sequence (P16662 24-529): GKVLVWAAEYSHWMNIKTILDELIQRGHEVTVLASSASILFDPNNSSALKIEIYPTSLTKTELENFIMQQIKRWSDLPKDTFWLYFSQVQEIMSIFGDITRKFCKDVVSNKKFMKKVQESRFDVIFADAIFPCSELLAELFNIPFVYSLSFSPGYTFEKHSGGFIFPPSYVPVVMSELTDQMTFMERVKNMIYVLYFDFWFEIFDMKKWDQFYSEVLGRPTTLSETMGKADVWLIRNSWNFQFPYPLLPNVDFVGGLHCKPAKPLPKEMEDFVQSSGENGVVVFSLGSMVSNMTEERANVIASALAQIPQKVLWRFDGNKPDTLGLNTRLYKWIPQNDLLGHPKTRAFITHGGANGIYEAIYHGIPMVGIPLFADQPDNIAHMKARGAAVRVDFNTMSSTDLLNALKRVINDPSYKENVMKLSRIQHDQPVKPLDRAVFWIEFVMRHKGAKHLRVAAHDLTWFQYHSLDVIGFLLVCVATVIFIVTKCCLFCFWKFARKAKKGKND
Source text: (§1) Reactions with substrates were run in duplicates.
(§2) Lysophosphatidic acid (LPA) stimulates lysophosphatidic acid receptors which in turn activate PKC and Ras-MAPK signalling pathways. Lysophosphatidic acid is a lipid second messenger involved in progression of malignant ovarian cancer. Cellular effects of lysophosphatidic acid accumulation include stimulation of cell proliferation, inhibition of apoptosis and increased invasiveness of cancer cells. It was hypothesized that anti-proliferative activity of UDP-glucuronosyltransferase 2B7 in the ovarian cancer cell model described above may be associated with inactivation of lysophosphatidic acid through glucuronidation. Thus, in vitro glucuronidation experiments on three different lysophosphatidic acid compounds (FIG. 10) was conducted using human liver microsomes and a recombinant UDP-glucuronosyltransferase 2B7 expressed in HK293 cells.

human liver microsomes = test: In vitro glucuronidation of lysophosphatidic acids by human liver microsomes; assay type: in vitro ADME; settings: for Glucuronidation by human liver microsomes (in words): FIG. 9A
Source text: as §1, §2

| SMILES | Glucuronidation by UGT2B7 (in words) [1] | Specific activity of glucuronidation ([1]; recombinant UGT2B7 expressed in HK293 cells) | Specific activity of glucuronidation (human liver microsomes) | Glucuronidation by human liver microsomes (in words) (human liver microsomes) |
| --- | --- | --- | --- | --- |
| CCCCCCCC/C=C\CCCCCCCC(=O)OCC(O)COP(=O)(O)O (centres unmarked) [oleoyl-lysophosphatidic acid] | actively glucuronidated | 250 pmol/min/mg | 560 pmol/min/mg | same activity profile |
| CCCCCCCCCCCCCCCCCC(=O)OC[C@@H](O)COP(=O)(O)O [stearoyl-lysophosphatidic acid] | not |  |  | same activity profile |
| CCCCCCCCCCCCCCCC(=O)OC[C@@H](O)COP(=O)(O)O [palmitoyl-lysophosphatidic acid] | not |  |  | same activity profile |
